Molecules are shown by their SMILES.

One assay concerns the target T1, human DGAT1 (Homo sapiens, UniProt O75907).
T1 construct: made in house; host or cells: Sf9 insect cells (baculovirus), used as membrane extracts
T1 sequence (O75907 1-488): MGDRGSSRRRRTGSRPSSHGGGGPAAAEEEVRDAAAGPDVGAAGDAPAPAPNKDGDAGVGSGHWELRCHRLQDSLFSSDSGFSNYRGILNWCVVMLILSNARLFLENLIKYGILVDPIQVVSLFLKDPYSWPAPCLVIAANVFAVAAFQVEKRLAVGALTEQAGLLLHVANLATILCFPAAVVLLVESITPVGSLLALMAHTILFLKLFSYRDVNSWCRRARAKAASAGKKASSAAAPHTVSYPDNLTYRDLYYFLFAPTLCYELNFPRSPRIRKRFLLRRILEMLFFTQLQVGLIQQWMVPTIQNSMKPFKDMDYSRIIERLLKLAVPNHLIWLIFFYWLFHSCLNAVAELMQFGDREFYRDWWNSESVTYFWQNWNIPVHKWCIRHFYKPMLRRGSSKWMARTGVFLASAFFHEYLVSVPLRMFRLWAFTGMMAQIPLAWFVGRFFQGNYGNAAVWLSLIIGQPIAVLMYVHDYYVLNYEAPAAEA
The experiment in a line: substrate concentration titration in TLC assay, DGAT1. In kind it is biochemical. The note with it: Michaelis Menton fit, duplicate. The method, then:
(§1) The data shown in FIG. 1B correspond to a TLC plate assay and various substrates that could be used in the assay. Aliquots of membrane extracts (30 μg) derived from either wild type baculovirus infected Sf9 cells (WT) (lanes 4,5) infected with recombinant human DGAT1 baculovirus (DGAT1) (lanes 6-8), or with recombinant human MGAT3 baculovirus (MGAT3) (lanes 1-3), were subjected to enzyme reactions in Buffer A (150 mM potassium phosphate buffer, pH 7.4) with 50 μM [^14C]oleoyl-CoA (40,000 d.p.m./nmol specific activity) as the acyl donor, and 100 μM 1,2-dioleoylglycerol (DOG), or 2-monooleoylglycerol (2-MOG) as the acyl acceptor (delivered by acetone, final vehicle concentration at 2%).
(§2) Assays were carried out for 10 minutes as described in (Cheng et al., Biochem J. 2001 Nov. 1;359 (Pt 3):707-14.). The products were resolved by TLC in a solvent comprising hexane: ether: acetic acid in a ration of 170:30:1, respectively. The products were visualized by a Phosphoimage exposure. […]
(§3) Briefly, substrate efficiency was determined from results obtained using a TLC acyltransferase assay. […] The enzymatic products were quantified and the kinetic parameters Vmax and Km were derived using the Michaelis Menton Equation as applied by Prism® software. […]

The next assay addresses T2, human MGAT3 (Homo sapiens, UniProt Q86VF5).
T2 construct: made in house; host or cells: Sf9 insect cells (baculovirus), used as membrane extracts
T2 sequence (Q86VF5 1-341): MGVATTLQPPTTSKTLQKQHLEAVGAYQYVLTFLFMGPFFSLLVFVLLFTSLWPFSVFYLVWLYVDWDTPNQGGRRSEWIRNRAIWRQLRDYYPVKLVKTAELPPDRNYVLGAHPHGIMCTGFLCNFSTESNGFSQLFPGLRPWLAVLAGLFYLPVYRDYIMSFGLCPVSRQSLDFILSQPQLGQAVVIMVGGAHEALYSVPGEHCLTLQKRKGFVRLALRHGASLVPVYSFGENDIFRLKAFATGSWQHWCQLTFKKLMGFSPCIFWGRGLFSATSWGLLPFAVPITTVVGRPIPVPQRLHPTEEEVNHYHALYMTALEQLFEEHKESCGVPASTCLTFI
The experiment in a line: substrate concentration titration in TLC assay, MGAT3. The note with it: Michaelis Menton fit, duplicate. In kind it is biochemical. The method, then: as §1, §2, §3

`CCCCCCCC/C=C\CCCCCCCC(=O)OC(CO)CO` [MOG, 2-monooleoylglycerol]: on human DGAT1, the “Km with MOG relative to 1,2-sn-dioleoylglycerol” value is recorded as “significantly reduced” and the “Vmax with MOG relative to 1,2-sn-dioleoylglycerol” value is recorded as “more than 20 fold”. At human MGAT3, the “Km with MOG relative to 1,2-sn-dioleoylglycerol” value is “significantly reduced” and the “Vmax with MOG relative to 1,2-sn-dioleoylglycerol” value is listed as “more than 50 fold”.

The values above are taken from patent US20070292906A1, “ASSAY FOR MEASURING ACYLTRANSFERASE ACTIVITY” (Bristol-Myers Squibb Company, priority 2006, published 2007).
